In one assay the test system is male Balb/b mice. Kind of assay: water immersion sleep deprivation test (weighted swimming time). The format is in vivo. The conditions noted are these: Example 3, FIG. 4; riboflavin 25 or 50 mg/kg (riboflavin equivalent), sesamin 50 mg/kg, p.o. once a day for 2 days of water immersion.
The conditions of assay [1]: ingested in high doses; cited from earlier work.
The conditions of assay [2]: perorally, 1 to 50 mg/kg; no further rise up to 75 mg; cited from earlier work.
For assay [3] the following is noted: intraperitoneally, 3 to 100 mg/kg; cited from earlier work.
The test system of a further assay is Wistar male rats. Kind of assay: acetic acid writhing test. It is filed as in vivo. The method, then:
A test on analgesic action was conducted by a partly modified version of the acetic acid writhing test of Moon et. al. (Biol. Pharm. Bull. (2005)). The specific test method was as follows. […] Three days before the acetic acid writhing test, the rats were divided into three groups each consisting of 6 heads; the control group was orally administered through a tube with olive oil at a dose of 5 ml/kg whereas the remaining two groups were administered with sesamin-class compounds (sesamin/episesamin mixture; sesamin: episesamin (weight ratio)=5:5) as they were dissolved in olive oil at respective doses of 50 mg/kg and 100 mg/kg. Subsequently, administration was similarly performed two days before the test and on the day before the test, two administrations were effected, one in the morning and the other in the evening; thus, a total of four administrations were effected. On the day of testing, rats that had been fasted overnight from the previous night were orally administered with 5 ml/kg of physiological saline and one hour later, they were administered intraperitoneally with 1 ml/170 g of physiological saline containing 1% acetic acid and immediately after this administration, the number of writhing movements the animals made for 30 minutes right after the administration was counted. […]

Method for male Balb/b mice: That is, by measuring the swimming time in a water-immersion sleep deprivation test. A mouse, kept in such an environment as water immersion that they are unable to have a sufficient sleep or resting position to rest physically or mentally, is forced to swim under the stress of a weight and the time it takes to have its nose submerged in the water for at least 10 seconds is measured to determine the degree of its fatigue. Since this animal model is a physical and mental fatigue model, if the administration of a test substance prolongs the swimming time, it is confirmed that the model has resistance to fatigue, as exemplified by prevention or amelioration of physical and mental fatigue and the accompanying distress such as muscular pain, an increase in physical strength that helps prolong the time to exhaustion, and maintenance of physical vigor in a fatigued state.
The effect against fatigue was evaluated by a water immersion sleep deprivation test. […]
After two days of water immersion, the mice were allowed to swim with a weight attached to each of their tails having a mass equivalent to 8% of their body weight, and the time they took to have their nose submerged in water for at least 10 seconds was measured.
The anti-fatigue action due to riboflavin and a sesamin-class compound(s) was measured as in Example 3, except that the mice were divided into six groups as shown in Table 2.

As to `Cc1cc2nc3c(=O)[nH]c(=O)nc-3n(C[C@H](O)[C@H](O)[C@H](O)COP(=O)(O)O)c2cc1C` [riboflavin, riboflavin sodium phosphate], the “suppression of the shortening of the swimming time (anti-fatigue action)” value in the assay on male Balb/b mice was “suppressed in the shortening of the swimming time”. Further, in assay [1], the migraine prophylaxis result was “effective for migraine prophylaxis”. The “analgesic effect in a formaldehyde test” value in assay [2] is “peaked at 25 mg”. Moreover, in assay [3], the “analgesic action against inflammatory pain” value was “showed an analgesic action against inflammatory pain in a dose-dependent fashion” and the “effect against pain in the nervous system” value was “ineffective”. In addition, the “number of writhing movements versus control group (Olive+Saline)” value in the assay on Wistar male rats (Example 1, FIG. 2, vitamin B2 30 mg/kg riboflavin equivalent p.o. alone) is on record as “tendency to make a smaller number of writhing movements than the control group”. Besides, the “suppression of number of writhing movements compared with control group (Olive+Saline)” value with Wistar male rats (Example 2, FIG. 3, vitamin B2 30 mg/kg riboflavin equivalent p.o., sesamin-class compounds 100 mg/kg p.o. x4 in the combination) turned out to be 10.5%.

These data come from patent US9895375B2, “Compositions containing riboflavin and sesamin-class compounds” (SUNTORY HOLDINGS LIMITED, priority 2006, dated 2018).
